Results reported in patent publication US20240190823A1, “NRF2 INHIBITORS AND USES THEREOF” (Board of Trustees of Michigan State University, priority 2021, published 2024).

Key:
Nrf2 = target: T1, Nrf2 (Homo sapiens, UniProt Q16236); conditions: cited from earlier work
T1 sequence (Q16236 1-605): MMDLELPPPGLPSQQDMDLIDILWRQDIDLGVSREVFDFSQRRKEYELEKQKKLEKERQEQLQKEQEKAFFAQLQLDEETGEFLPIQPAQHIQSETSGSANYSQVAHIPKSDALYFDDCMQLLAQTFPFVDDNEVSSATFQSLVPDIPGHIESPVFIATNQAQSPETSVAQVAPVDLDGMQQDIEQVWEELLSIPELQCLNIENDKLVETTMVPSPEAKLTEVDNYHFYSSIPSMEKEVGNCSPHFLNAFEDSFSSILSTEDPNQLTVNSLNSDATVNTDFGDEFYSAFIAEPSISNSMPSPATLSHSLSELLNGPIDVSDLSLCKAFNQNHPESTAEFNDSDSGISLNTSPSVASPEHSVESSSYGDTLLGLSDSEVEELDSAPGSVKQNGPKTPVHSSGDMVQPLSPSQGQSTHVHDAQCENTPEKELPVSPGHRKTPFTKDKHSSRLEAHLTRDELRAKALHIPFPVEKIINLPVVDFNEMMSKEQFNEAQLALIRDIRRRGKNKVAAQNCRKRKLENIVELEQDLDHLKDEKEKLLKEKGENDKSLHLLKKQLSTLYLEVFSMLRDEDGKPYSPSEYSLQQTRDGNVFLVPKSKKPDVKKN

[1] = test system: A549, H460 and A427 cells; experiment: Cell growth in 3D culture (0.6% soft agar); assay type: cell-based, human; conditions: 7 days, dose-dependent
Protocol: (§1) To evaluate cell proliferation in 2D culture, a MTT assay was performed. Cells were seeded in 96-well plates with 2000 cells/well in their corresponding growth media. […] To assess cell growth in 3D culture, A549, H460 and A427 cells were plated in 0.6% soft agar for 7 days. A Cytation 3 imaging reader from BioTek with Gen5 3.04 software was used to quantify colonies. Seven pictures were taken every 100 μm and superimposed together by z-projection function. Colonies>50 μm in diameter were quantified for each cell line.
(§2) Besides its anti-oxidative properties, Nrf2 also contributes to tumor cell growth. Nrf2 not only regulates cell proliferation as a downstream mediator of several onco-proteins but also reprograms cellular metabolism to favor anabolic pathways.

MCF-10A cells = experiment: Cell growth assay, MTT, MCF-10A cells; assay type: cell-based; conditions: concentrations<20 μM (data not shown)
Protocol: as §1, §2

[2] = test system: NF-κB pathway proteins (IκBa, NF-κB, p-NF-κB), cyclinG1 and STAT3; experiment: Western blotting of other cellular proteins (selectivity); assay type: cell-based
Protocol: Protein concentrations were measured using the BCA assay (Sigma-Aldrich). 20 μg of protein were separated by 10% SDS-PAGE gels and transferred to nitrocellulose membranes. Nrf2 (Novus Biologicals, 1:1000), NQO1 (Abcam, 1:1000), HO-1 (Abcam, 1:1000), Keap1 (Cell Signaling Technology, 1:1000), NF-κB (Cell Signaling Technology, 1:1000), IκBα (Cell Signaling Technology, 1:1000) Cyclin G1 (Santa Cruz, 35 1:1000), β-TrCP (Cell Signaling Technology, 1:1000), STAT3 (Cell Signaling Technology, 1:1000), Ubiquitin (Cell Signaling Technology, 1:1000), Histone 3 (Cell Signaling Technology, 1:4000), GAPDH (Santa Cruz, 1:4000) and Vinculin (Cell Signaling Technology, 1:4000) primary antibodies were applied to detect the corresponding proteins. Secondary antibodies (anti-rabbit or anti-mouse linked to HRP, 1:1000) were purchased from Cell Signaling Technology. ECL Western blotting substrate (GE Healthcare Life Sciences, UK) was used to detect the signal. […] Protein quantification was done using ImageJ.

[3] = test system: A549, H460, A427 and MCF-7 cells; experiment: Cell growth assay, MTT, 2D culture, cancer cells; assay type: cell-based, human; conditions: 72 hours
Protocol: as §1, §2

A549 cells [4] = experiment: Chemoresistance assay (Celltiter-glo); conditions: 72 hours
Excerpt: Data was normalized to the DMSO control and presented as a percentage of cell viability. Data represent three independent experiments.

Nrf2 pathway = experiment: RT-qPCR of targets downstream of Nrf2 in A549 cells; conditions: 24 hours of treatment
Protocol: Total RNA was isolated using a RNeasy Mini Kit (QIAGEN). RNA concentrations were determined using NanoDrop. For each sample, 500 ng RNA was used to synthesize cDNA with high capacity cDNA reverse transcription kits (AppliedBiosystems). Primers were ordered from IDT. AppliedBiosystems Fast SYBR Green Master Mix and the QuantStudio 7 Flex Real-Time PCR system were used to detect gene expression. The delta-delta Ct method was applied to calculate relative gene expression. Values were normalized to the reference gene GAPDH and expressed as fold change compared to DMSO treated samples.

A549 cells [5] = experiment: Reactive oxygen species (ROS) assay; conditions: 24 hours, then tBHP for 15 minutes
Protocol: DCFDA (10 μM) was added for 2 hrs as an ROS indicator and then cells were treated with tert-butyl hydroperoxide (tBHP, 250 μM) for 15 minutes before harvesting. Then cells were washed with PBS and trypsinized to a single cell suspension. The cell pellet was resuspended in PBS and analyzed using a flow cytometer (Accuri, BD) with the FLA-1 channel. 50,000 events were acquired for each sample. Mean fluorescence intensity (MFI) was calculated using FlowJo software.

A549 cells [6] = experiment: In vivo treatment study, subcutaneous A549 xenograft; conditions: for tumor growth (tumor volume): i.p. daily (M-F), compound 1 50 mg/kg BID, carboplatin 5 mg/kg
Protocol: Male athymic nude mice (Harlan Laboratories, 6 week-old) were injected in the flank with 5×10^6 A549 cells. Cell line authenticity and absence of pathogens in the A549 cells were confirmed before establishing the model (I DEXX BioAnalytics). […] All mice were weighed twice a week, and tumors were measured twice a week using a caliper. All mice were sacrificed after 4 weeks of treatment and harvested for analysis of Nrf2 expression and cell proliferation.
Tumors were harvested and fixed in 10% neutral buffered formalin. Sectioned were obtained for immunohistochemistry staining. Sodium citrate buffer (10 mM, Vector) was used for antigen retrieval. 3% hydrogen peroxide (15-minute incubation) was used to quench the endogenous peroxidase activity. Sections were stained with PCNA (1:200, Santa Cruz) or Nrf2 (1:200, Novus Biologicals) antibodies for 1 hour at room temperature or overnight at 4° C., respectively. Anti-mouse and anti-rabbit secondary antibodies conjugated to HRP were purchased from Cell Signaling Technology. Signal was detected using a DAB kit (Cell Signaling Technology) and sections were counterstained with hematoxylin (Vector).

With `CCC(=O)O[C@]1(C(=O)CCl)[C@@H](C)C[C@H]2[C@@H]3CCC4=CC(=O)C=C[C@]4(C)[C@@]3(F)[C@@H](O)C[C@@]21C` [clobetasol propionate] as the compound, how does the “mechanism of Nrf2 degradation” value (Nrf2) read?
Its value is “promotes βTrCP-dependent degradation of Nrf2”.

For `Cc1cc(C)cc(Nc2nc(C)c(-c3ccccc3)cc2C#N)c1` [Compound 1, 2-((3,5-dimethylphenyl)amino)-6-methyl-5-phenylnicotinonitrile], which “growth in soft agar” value [1] is on record?
Its value is “significantly (p<0.05) suppressed the growth”.

And the “cell viability of non-tumorigenic epithelial cells” value (MCF-10A cells)?
The value was “did not have any effects on cell viability”.

What about the “levels of NF-κB pathway proteins and other fast turnover proteins (cyclinG1, STAT3)” value [2] of the same compound?
Its value is “did not change levels”.

What about the “overall expression pattern of abundant cellular proteins” value ([2]; data not shown) of the same compound?
Its value is “did not alter the overall expression pattern of abundant cellular proteins”.

And the “sensitivity of Keap1 mutant (A549, H460) vs Keap1 wildtype (A427, MCF-7) cells” value ([3]; MTT)?
Its value is “higher sensitivity”.

And the “cell proliferation (MTT)” value ([3]; Keap1 mutant and Keap1 wild-type cancer cells)?
The value was “inhibited proliferation in various cancer cells”.

What about the “effect in combination with chemotherapy drugs (carboplatin, doxorubicin, 5-fluorouracil, topotecan) on cell viability” value (A549 cells [4]) of the same compound?
Its value is “Additive effects”.

What about the “mRNA expression of NFE2L2” value (Nrf2 pathway) of the same compound?
The value was “did not affect the mRNA expression of NFE2L2”.

What about the “mRNA expression of targets downstream of Nrf2 (NQO1, GCLC, GCLM, GST1A1, UGT1A6)” value (Nrf2 pathway) of the same compound?
The value was “significantly (p<0.05) decreased the expression of all these downstream genes”.

And the ROS production (A549 cells [5])?
Its ROS production is “dose-dependently increased ROS production”.

And the “expression of Nrf2 protein in the tumors” value (A549 cells [6]; immunohistochemistry, vs vehicle control group)?
The value was “diminished the expression of Nrf2 protein in the tumors”.

And the “tolerability / body weight” value (A549 cells [6]; nude mice, 50 mg/kg BID i.p., four weeks)?
Its value is “generally well tolerated in the mice without inducing any changes on body weight over time”.

What about the “tumor growth (tumor volume)” value (A549 cells [6]; nude mice, four weeks) of the same compound?
Its value is “appeared to slow tumor growth, but the change was not statistically significant”.

For `N.N.O=C([O-])C1(C(=O)[O-])CCC1.[Pt+2]` [Carboplatin, carboplatin, reference compound], which “tumor growth (tumor volume)” value (A549 cells [6]; nude mice, four weeks) is on record?
Its value is “failed to arrest tumor growth”.

Which “time for Nrf2 protein levels to return to basal levels” value (Nrf2) does the source give for brusatol here?
The value was ≤ 8 h.

And the “time of maximum reduction of Nrf2” value (Nrf2)?
Its value is 2 to 4 h.
